*1 amine or outer side, *2 acyl side, *3 side chain or, on linkers, in order; H or OH if unused. Where a SMILES comes first, the peptide text is derived from it. Side-chain parts run from the residue outwards. The star is where a group is joined. C18 diacid = O=C(O)CCCCCCCCCCCCCCCCC(=O)*; γGlu = O=C(O)[C@H](CCC(=O)[*:2])N[*:1]; Isovaleryl = CC(C)CC(=O)*; AEEA = NCCOCCOCC(=O)O

The experiment addresses T1, Human Neuropeptide Y2 Receptor (Homo sapiens, UniProt P49146).
T1 construct: purchased CHEMICON HTS066M
T1 sequence (P49146 1-381): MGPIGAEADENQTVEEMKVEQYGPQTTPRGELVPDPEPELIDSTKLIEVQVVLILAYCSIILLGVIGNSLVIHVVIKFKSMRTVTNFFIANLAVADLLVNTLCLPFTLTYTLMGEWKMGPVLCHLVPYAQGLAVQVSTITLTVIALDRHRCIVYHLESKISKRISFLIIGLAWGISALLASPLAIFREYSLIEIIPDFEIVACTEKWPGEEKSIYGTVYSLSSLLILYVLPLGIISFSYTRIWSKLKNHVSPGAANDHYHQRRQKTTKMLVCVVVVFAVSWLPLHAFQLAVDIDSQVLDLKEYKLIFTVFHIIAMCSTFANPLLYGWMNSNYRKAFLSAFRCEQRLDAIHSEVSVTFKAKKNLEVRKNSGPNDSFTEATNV
Kind of experiment: Radioligand binding competition assay (RLB). The settings on record: Table 3; human 125I-PYY (1-36) 0.02 nM, Y2 receptor membranes; read-out: Ki. As to the method: The filtration RLB assay was carried out in 96-well plates in a final volume of 100 μl per well. Freeze-dried test peptides were dissolved in 100% dimethyl sulfoxide (DMSO) to stock solutions of 1 mM and serial dilutions were performed in assay buffer (50 mM HEPES, 5 mM MgCl2, 1 mM CaCl2), pH 7.4) containing 0.2% ovalbumin. […] Next, 80 μL membranes (HTS066M, ChemiSCREEN™ Human Neuropeptide Y2 Receptor Membrane Preparation, CHEMICON) were added to each well to give a final protein concentration of 0.5 μg/well. The plates were sealed and incubated at room temperature for 2 hours in a plate shaker set at 400 rpm. The incubation was stopped by vacuum filtration onto 0.5% poly-ethylene amine (PEI) presoaked GF/C filters using a 96-well FilterMate™ harvester (Perkin Elmer) followed by four washes with 300 μl/well ice-cold wash buffer (50 mM HEPES, 500 mM NaCl, pH7.4). Filter plates were then dried for 60 min at room temperature and the bottom of the plates was sealed with backing tape UniFilter-96. Finally, 50 μl/well scintillation counter cocktail (Microscint20, Packard) was added and the radioactivity was counted in the Packard TopCount NXT scintillation counter. IC50 values (the half maximal inhibitory concentration of the agonist) were calculated by nonlinear regression analysis of sigmoidal dose-response curves.
In general, Ki refers to a measure of affinity in units of concentration, obtained from inhibition or displacement. With `CC(C)CC(=O)N[C@@H](C)C(=O)N1CCC[C@H]1C(=O)N[C@@H](CCC(=O)O)C(=O)N[C@@H](CCCCNC(=O)COCCOCCNC(=O)COCCOCCNC(=O)CC[C@H](NC(=O)CCCCCCCCCCCCCCCCC(=O)O)C(=O)O)C(=O)N1CCC[C@H]1C(=O)N[C@@H](CCC(=O)O)C(=O)N[C@@H](CCC(=O)O)C(=O)N[C@@H](CCC(=O)O)C(=O)N[C@H](C(=O)N[C@@H](CO)C(=O)N1CCC[C@H]1C(=O)N[C@@H](CCC(=O)O)C(=O)N[C@@H](CCC(=O)O)C(=O)N[C@@H](CC(C)C)C(=O)N[C@@H](CCC(N)=O)C(=O)N[C@@H](CCCNC(=N)N)C(=O)N[C@@H](Cc1ccc(O)cc1)C(=O)N[C@@H](Cc1ccc(O)cc1)C(=O)N[C@H](C(=O)N[C@@H](CO)C(=O)N[C@@H](CC(C)C)C(=O)N[C@@H](CCCNC(=N)N)C(=O)N[C@@H](Cc1c[nH]cn1)C(=O)N[C@@H](Cc1ccc(O)cc1)C(=O)N[C@@H](Cc1ccc(O)cc1)C(=O)N[C@@H](CC(N)=O)C(=O)N[C@@H](Cc1c[nH]c2ccccc12)C(=O)N[C@@H](CC(C)C)C(=O)N[C@H](C(=O)N[C@@H](CCCNC(=N)N)C(=O)N[C@@H](CCC(N)=O)C(=O)N[C@@H](CCCNC(=N)N)C(=O)N[C@@H](Cc1ccc(O)cc1)C(N)=O)[C@@H](C)O)C(C)C)C(C)C` [Compound 5, N{alpha-4}-(3-methylbutanoyl)-N{epsilon-7}-[2-(2-{2-[2-(2-{2-[(4S)-4-carboxy-4-(17-carboxyheptadecanamido)butanamido]ethoxy}ethoxy)acetamido]ethoxy}ethoxy)acetamido]-[4A,7K,9E,11E,12V,18Q,22V,28Y,30W,31L]hPYY (4-36)] (Isovaleryl-APEK([AEEA-AEEA-γGlu-C18 diacid])PEEEVSPEELQRYYVSLRHYYNWLTRQRY-NH2), the Ki worked out at 14.8 nM. The value for `CC(C)CC(=O)N[C@@H](C)C(=O)N1CCC[C@H]1C(=O)N[C@@H](CCC(=O)O)C(=O)N[C@@H](CCCCNC(=O)COCCOCCNC(=O)COCCOCCNC(=O)CC[C@H](NC(=O)CCCCCCCCCCCCCCCCC(=O)O)C(=O)O)C(=O)N1CCC[C@H]1C(=O)N[C@@H](CCC(=O)O)C(=O)N[C@@H](CCC(=O)O)C(=O)N[C@@H](CCC(=O)O)C(=O)N[C@@H](C)C(=O)N[C@@H](CO)C(=O)N1CCC[C@H]1C(=O)N[C@@H](CCC(=O)O)C(=O)N[C@@H](CCC(=O)O)C(=O)N[C@@H](CC(C)C)C(=O)N[C@@H](CCC(N)=O)C(=O)N[C@@H](CCCNC(=N)N)C(=O)N[C@@H](Cc1ccc(O)cc1)C(=O)N[C@@H](Cc1ccc(O)cc1)C(=O)N[C@H](C(=O)N[C@@H](CO)C(=O)N[C@@H](C)C(=O)N[C@@H](CCCNC(=N)N)C(=O)N[C@@H](Cc1c[nH]cn1)C(=O)N[C@@H](Cc1ccc(O)cc1)C(=O)N[C@@H](Cc1ccc(O)cc1)C(=O)N[C@@H](CC(N)=O)C(=O)N[C@@H](Cc1c[nH]c2ccccc12)C(=O)N[C@@H](CC(C)C)C(=O)N[C@H](C(=O)N[C@@H](CCCNC(=N)N)C(=O)N[C@@H](CCC(N)=O)C(=O)N[C@@H](CCCNC(=N)N)C(=O)N[C@@H](Cc1ccc(O)cc1)C(N)=O)[C@@H](C)O)C(C)C` [Compound 6, N{alpha-4}-(3-methylbutanoyl)-N{epsilon-7}-[2-(2-{2-[2-(2-{2-[(4S)-4-carboxy-4-(17-carboxyheptadecanamido)butanamido]ethoxy}ethoxy)acetamido]ethoxy}ethoxy)acetamido]-[4A,7K,9E,11E,18Q,22V,24A,28Y,30W,31L]hPYY (4-36)] (Isovaleryl-APEK([AEEA-AEEA-γGlu-C18 diacid])PEEEASPEELQRYYVSARHYYNWLTRQRY-NH2) was 6.52 nM; that for `CC(C)CC(=O)N[C@@H](C)C(=O)N1CCC[C@H]1C(=O)N[C@@H](CCC(=O)O)C(=O)N[C@@H](CCCCNC(=O)COCCOCCNC(=O)COCCOCCNC(=O)CC[C@H](NC(=O)CCCCCCCCCCCCCCCCC(=O)O)C(=O)O)C(=O)N1CCC[C@H]1C(=O)N[C@@H](CCC(=O)O)C(=O)N[C@@H](C)C(=O)N[C@@H](CC(=O)O)C(=O)N[C@@H](C)C(=O)N[C@@H](CO)C(=O)N1CCC[C@H]1C(=O)N[C@@H](CCC(=O)O)C(=O)N[C@@H](CCC(=O)O)C(=O)N[C@H](C(=O)N[C@@H](CCC(N)=O)C(=O)N[C@@H](CCCNC(=N)N)C(=O)N[C@@H](Cc1ccc(O)cc1)C(=O)N[C@@H](Cc1ccc(O)cc1)C(=O)N[C@H](C(=O)N[C@@H](CO)C(=O)N[C@@H](CC(C)C)C(=O)N[C@@H](CCCNC(=N)N)C(=O)N[C@@H](Cc1c[nH]cn1)C(=O)N[C@@H](Cc1ccc(O)cc1)C(=O)N[C@@H](Cc1ccc(O)cc1)C(=O)N[C@@H](CC(N)=O)C(=O)N[C@@H](Cc1c[nH]c2ccccc12)C(=O)N[C@@H](CC(C)C)C(=O)N[C@H](C(=O)N[C@@H](CCCNC(=N)N)C(=O)N[C@@H](CCC(N)=O)C(=O)N[C@@H](CCCNC(=N)N)C(=O)N[C@@H](Cc1ccc(O)cc1)C(N)=O)[C@@H](C)O)C(C)C)[C@@H](C)O` [Compound 10, N{alpha-4}-(3-methylbutanoyl)-N{epsilon-7}-[2-(2-{2-[2-(2-{2-[(4S)-4-carboxy-4-(17-carboxyheptadecanamido)butanamido]ethoxy}ethoxy)acetamido]ethoxy}ethoxy)acetamido]-[4A,7K,9E,10A,17T,18Q,22V,28Y,30W,31L]hPYY (4-36)] was 1.28 nM; that for `CC(C)CC(=O)N[C@@H](C)C(=O)N1CCC[C@H]1C(=O)N[C@@H](CCC(=O)O)C(=O)N[C@@H](CCCCNC(=O)COCCOCCNC(=O)COCCOCCNC(=O)CC[C@H](NC(=O)CCCCCCCCCCCCCCCCC(=O)O)C(=O)O)C(=O)N1CCC[C@H]1C(=O)N[C@@H](CCC(=O)O)C(=O)N[C@@H](CCC(=O)O)C(=O)N[C@@H](CC(=O)O)C(=O)N[C@@H](C)C(=O)N[C@@H](C)C(=O)N1CCC[C@H]1C(=O)N[C@@H](CCC(=O)O)C(=O)N[C@@H](CCC(=O)O)C(=O)N[C@@H](CC(C)C)C(=O)N[C@@H](CCC(N)=O)C(=O)N[C@@H](CCC(N)=O)C(=O)N[C@@H](Cc1ccc(O)cc1)C(=O)N[C@@H](Cc1ccc(O)cc1)C(=O)N[C@H](C(=O)N[C@@H](CO)C(=O)N[C@@H](CC(C)C)C(=O)N[C@@H](CCCNC(=N)N)C(=O)N[C@@H](Cc1c[nH]cn1)C(=O)N[C@@H](Cc1ccc(O)cc1)C(=O)N[C@@H](Cc1ccc(O)cc1)C(=O)N[C@@H](CC(N)=O)C(=O)N[C@@H](Cc1c[nH]c2ccccc12)C(=O)N[C@@H](CC(C)C)C(=O)N[C@H](C(=O)N[C@@H](CCCNC(=N)N)C(=O)N[C@@H](CCC(N)=O)C(=O)N[C@@H](CCCNC(=N)N)C(=O)N[C@@H](Cc1ccc(O)cc1)C(N)=O)[C@@H](C)O)C(C)C` [Compound 13, N{alpha-4}-(3-methylbutanoyl)-N{epsilon-7}-[2-(2-{2-[2-(2-{2-[(4S)-4-carboxy-4-(17-carboxyheptadecanamido)butanamido]ethoxy}ethoxy)acetamido]ethoxy}ethoxy)acetamido]-[4A,7K,9E,13A,18Q,19Q,22V,28Y,30W,31L]hPYY (4-36)] was 1.29 nM. For `CC[C@H](C)[C@H](NC(=O)[C@H](CCC(=O)O)NC(=O)[C@H](CCC(=O)O)NC(=O)[C@@H]1CCCN1C(=O)[C@H](CO)NC(=O)[C@H](C)NC(=O)[C@H](CC(=O)O)NC(=O)[C@H](CCC(=O)O)NC(=O)[C@H](CCC(=O)O)NC(=O)[C@@H]1CCCN1C(=O)[C@H](CCCCNC(=O)COCCOCCNC(=O)COCCOCCNC(=O)CC[C@H](NC(=O)CCCCCCCCCCCCCCCCC(=O)O)C(=O)O)NC(=O)[C@H](CCC(=O)O)NC(=O)[C@@H]1CCCN1C(=O)[C@H](C)NC(=O)CC(C)C)C(=O)N[C@@H](CCC(N)=O)C(=O)N[C@@H](CCCNC(=N)N)C(=O)N[C@@H](Cc1ccc(O)cc1)C(=O)N[C@@H](CCC(=O)O)C(=O)N[C@H](C(=O)N[C@@H](CO)C(=O)N[C@@H](CC(C)C)C(=O)N[C@@H](CCCNC(=N)N)C(=O)N[C@@H](Cc1c[nH]cn1)C(=O)N[C@@H](Cc1ccc(O)cc1)C(=O)N[C@@H](Cc1ccc(O)cc1)C(=O)N[C@@H](CC(N)=O)C(=O)N[C@@H](Cc1c[nH]c2ccccc12)C(=O)N[C@@H](CC(C)C)C(=O)N[C@H](C(=O)N[C@@H](CCCNC(=N)N)C(=O)N[C@@H](CCC(N)=O)C(=O)N[C@@H](CCCNC(=N)N)C(=O)N[C@@H](Cc1ccc(O)cc1)C(N)=O)[C@@H](C)O)C(C)C` [Compound 15, N{alpha-4}-(3-methylbutanoyl)-N{epsilon-7}-[2-(2-{2-[2-(2-{2-[(4S)-4-carboxy-4-(17-carboxyheptadecanamido)butanamido]ethoxy}ethoxy)acetamido]ethoxy}ethoxy)acetamido]-[4A,7K,9E,17I,18Q,21E,22V,28Y,30W,31L]hPYY (4-36)] the value was 2.89 nM.

The record behind these values is patent US12559529B2, “NPY2 receptor agonists” (Boehringer Ingelheim International GmbH, priority 2019, dated 2026).
